# How the values were obtained:
# Assay type in all cases: cell-based
# [1] = biological target: T1, Bcl-xL:BIM and Bcl-2:BIM complex (Homo sapiens, UniProt Q07817); assay: Bcl-2:BIM and Bcl-xL:BIM complex analysis by MSD advanced ELISA in Toledo cells; details: Toledo and RS4; 11 cell lines (FIGS. 4A, 4B), 24 hours
# T1 construct: A diffuse large B cell lymphoma line, Toledo, and an acute lymphocytic leukemia line, RS4; endogenous in cells; host or cells: Toledo
# Procedure: (§1) A diffuse large B cell lymphoma line, Toledo, and an acute lymphocytic leukemia line, RS4; 11, were chosen for the study. Cells were treated for 24 hours with Compound B4 or ABT-737 at indicated concentrations (0.025 uM, 0.04 uM and 0.06 uM, respectively) and harvested for complex analysis. Both Bcl-2:BIM and Bcl-xL:BIM complex were analyzed using MSD advanced ELISA methods.
# [2] = test system: Bcl-xL:BIM and Bcl-2:BIM complex; assay: as above; details: Toledo cell line, 24 hours, 0.025, 0.04 and 0.06 uM
# Procedure: as §1
# [3] = test system: Bcl-xL:BIM and Bcl-2:BIM complex; assay: Bcl-2:BIM and Bcl-xL:BIM complex analysis by MSD advanced ELISA in RS4; 11 cells; details: 11 cell line, 24 hours, 0.025, 0.04 and 0.06 uM
# Procedure: as §1
# T1 sequence (Q07817 whole entry, one chain of several): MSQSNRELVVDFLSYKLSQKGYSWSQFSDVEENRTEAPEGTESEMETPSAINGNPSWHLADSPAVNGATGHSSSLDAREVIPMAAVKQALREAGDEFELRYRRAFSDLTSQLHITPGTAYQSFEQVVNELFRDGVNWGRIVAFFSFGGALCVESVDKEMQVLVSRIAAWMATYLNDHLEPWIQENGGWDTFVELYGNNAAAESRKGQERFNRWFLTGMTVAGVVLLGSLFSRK
structure (smiles),measurement,setting,value
"Cc1c(S(C)(=O)=O)c(-c2cc(F)cc(N3CCN(c4ccc(NS(=O)(=O)c5ccc(N[C@H](CCN6CCC(C(=O)O)CC6)CSc6ccccc6)c(S(=O)(=O)C(F)(F)F)c5)cc4)CC3)c2)c(-c2ccc(Cl)cc2)n1C(C)C [Compound B4, (R)-1-(3-(4-(N-(4-(4-(3-(2-(4-chlorophenyl)-1-isopropyl-5-methyl-4-(methylsulfonyl)-1H-pyrrol-3-yl)-5-fluorophenyl)piperazin-1-yl)phenyl)sulfamoyl)-2-(trifluoromethylsulfonyl)phenylamino)-4-(phenylthio)butyl)piperidine-4-carboxylic acid]",disruption of Bcl-xL:BIM complex compared with ABT-737,[1],disrupted Bcl-xL:BIM complex more intensely than ABT-737
same,disruption of Bcl-xL:BIM vs Bcl-2:BIM complex,[2],more potently disrupted Bcl-xL:BIM than Bcl-2:BIM complex
same,disruption of Bcl-xL:BIM vs Bcl-2:BIM complex,[3],more potently disrupted Bcl-xL:BIM than Bcl-2:BIM complex
